The values below are quoted from earlier work in patent US9409968B2, “Toll-like receptor-based biosensors” (University of Massachusetts, priority 2009, dated 2016).

This data set concerns lupus-prone mice. Particulars: administered to lupus-prone mice.

For “5′-TGCTCCTGGAGGGGTTGT-3′ (listed as DNA, chemistry not given here) [IRS 954]”, the autoantibody production result is “reduction of autoantibody production” and the disease symptoms result is on record as “amelioration of disease symptoms”.
